Data: the OPERA property sets (Mansouri et al. 2018)
Converted amounts (≈) assume the structure as drawn. Where a SMILES comes first, the peptide text is derived from it.

logP | SMILES | solubility
2.6 | O=C(O)COc1cccc2ccccc12 | –
-1.3 | CC(=O)Nc1nc2c(ncn2COCCO)c(=O)[nH]1 | –
2.88 | O=C(NCc1ccc(F)cc1)C(=O)c1c[nH]c2ccccc12 | –
2.54 | COc1ccc(Oc2ccc(NC(=O)N(C)C)cc2)cc1 | –
0.96 | Nc1ccc(O)c([N+](=O)[O-])c1 | –
1.87 | COc1cc([N+](=O)[O-])c2ncccc2c1 | –
0.15 | CCNC(=O)CCC(NS(=O)(=O)c1ccccc1)C(=O)O (centres undefined) | –
2.5 | OCCOc1cccc2ccccc12 | –
3.96 | CN(C)c1ccc(N=C=S)cc1 | –
0.22 | COC1=CC(=O)C(OC)=C(OC)C1=O | –
-0.29 | COC(=O)C1CCN1CC(O)Cn1ccnc1 (centres undefined) | –
6.7 | Cc1cc(Cl)ccc1OCC(=O)OCCCCCC(C)C | –
-1.01 | O=C1CCC(c2ccc[n+]([O-])c2)N1 (centres undefined) | –
1.5 | O=C(Nc1ccccc1)n1cc(F)c(=O)[nH]c1=O | –
1.21 | OC(CNC1CCCCC1Br)Cn1ccnc1 (centres undefined) | –
3.9 | CCCCC(=O)OCN1C(=O)NC(c2ccccc2)(c2ccccc2)C1=O | –
0.86 | Cn1c(CC(=O)O)cnc1C(=O)c1ccc([N+](=O)[O-])cc1 | –
3.01 | C=CCOc1ccccc1OCC(CNC(C)C)OC(=O)C1CC1 (centres undefined) | –
3.38 | COc1ccc(-c2cc(C#N)c(Cl)nc2C)cc1 | –
3.63 | Cc1cc(OCCN(C)C)c(C(C)C)cc1OC1CCCCC1=O (centres undefined) | –
2.33 | O=C(O)Cc1ccccc1I | –
5.87 | Clc1ccc(-c2ccccc2Cl)cc1Cl | –

logP | SMILES | solubility
0.26 | Brc1cccc(O[Si]23OCCN(CCO2)CCO3)c1 | –
0.48 | O=C(O)CCCCn1nnc2ccccc21 | –
3.08 | CC(=O)Nc1ccc2c(c1)Cc1cc([N+](=O)[O-])ccc1-2 | –
1.9 | CC(=O)Oc1ccc(NC(=O)C(Cl)Cl)cc1 | –
2.05 | Cc1ccc(C)c(C)n1 | –
4.51 | CNCCC=C1c2ccccc2CCc2ccccc21 | –
0.12 | Cc1nc(N)c2ncn([C@@H]3O[C@H](CO)C[C@@H]3F)c2n1 | –
1.15 | Nc1ncnc2c1ncn2C1OC2COP(=O)(OCc3ccccc3)OC2C1O (centres undefined) | –
-0.39 | Cc1cc(=O)oc2cc(C3OC(C(=O)O)C(O)C(O)C3O)ccc12 (centres undefined) | –
0.07 | O=[N+]([O-])c1cncn1CCN1CCOCC1 | –
1.38 | COc1ccc(C(=O)CCC(=O)O)cc1 | –
2.7 | Cc1ccc(C(=O)CS(=O)(=O)c2ccccc2)cc1 | –
0.68 | CNCCc1ccccn1 | –
0.11 | Cc1cc(C)c(NC(=O)CN(CC(=O)O)CC(=O)O)c(C)c1Br | –
1.89 | NS(=O)(=O)c1cc2c(cc1C(F)(F)F)NC(Cc1ccccc1)NS2(=O)=O (centres undefined) | –
0.07 | CN1C(=O)CC[C@H]1c1cccnc1 | –
0.93 | CS(=O)CCCOc1ccc([N+](=O)[O-])cc1 (centres undefined) | –
0.72 | CCOC(=O)[C@@H](N)Cc1ccc(O)cc1 | –
4.51 | COc1cc(Cl)c(Cl)c(Cl)c1Cl | –
0.24 | CC(C)NCC(O)c1ccc(NS(C)(=O)=O)cc1 (centres undefined) | –
1.89 | NS(=O)(=O)c1nn2c(=Nc3ccc(O)cc3)snc2s1 | –
2.47 | CCn1cc(C(=O)NC(C)C(=O)OC)c(=O)c2ccc(C)nc21 (centres undefined) | –

More lines, now with the values behind:

SMILES | logP | solubility
ClC1(Cl)C2(Cl)C3(Cl)C4(Cl)C(Cl)(Cl)C5(Cl)C3(Cl)C1(Cl)C5(Cl)C24Cl (centres undefined) | 6.89 | –
CCOC(=O)C(C)OC(=O)c1cc(Oc2ccc(C(F)(F)F)cc2Cl)ccc1[N+](=O)[O-] (centres undefined) | – | 0.000217 mM (≈ 0.1 µg/mL)
CC(C)(C)C1CCCCC1 | 5.04 | –
Nc1ccc2c(c1)Cc1cc([N+](=O)[O-])ccc1-2 | 3.06 | –
CN1CC=C(c2cccc(N)c2)CC1 | 1.47 | –
CCOC(=O)CCC(=O)OCC | 1.2 | –
COC(=O)c1sccc1S(=O)(=O)NC(=O)Nc1nc(C)nc(OC)n1 | 1.56 | –
Clc1ccc(Cl)c(-c2cc(Cl)c(Cl)cc2Cl)c1 | 5.68 | –
CCCN(CCOc1c(Cl)cc(Cl)cc1Cl)C(=O)n1ccnc1 | 4.1 | –
OCC(S)CS (centres undefined) | – | 700 mM (≈ 87000 µg/mL)
OCCOCCOCCO | -1.75 | –
CCCCCCCCC(=O)OC | 4.32 | –
CCOc1cc(C=O)ccc1O | 1.58 | –
O=C1c2ccccc2C(=O)C1C(=O)C(c1ccccc1)c1ccccc1 | 4.27 | –
CC(=O)N[C@@H](C)C(=O)N[C@H](C(N)=O)C(C)C (Ac-Ala-Val-NH2) | -1.13 | –
CCCCC(=O)OCC1OC(n2cnc3c(OC)ncnc32)C(OC(=O)CCCC)C1O (centres undefined) | 3.58 | –
CCCCC[C@H](O)/C=C/[C@H]1[C@H](O)CC(=O)[C@@H]1CCCCCCC(=O)O | 3.2 | –
Nc1cc2ccccc2cc1N | 1.54 | –
CC1CCC(=O)N1C (centres undefined) | -0.07 | –
C#CC(C)(C)NC(=O)c1cc(Cl)cc(Cl)c1 | 3.43 | –
CN1CC=C(c2ccc(Cl)cc2)CC1 | 3.32 | –
CC=O | -0.34 | –
CN(C)CCc1ccccn1 | 1.12 | –
O=P(OCCCl)(OCCCl)OCCCl | – | 24.5 mM (≈ 7000 µg/mL)
CC(C)c1cccc(OP(=O)(Oc2ccccc2)Oc2ccccc2)c1 | 5.31 | –
CC(C)(C#N)/N=N/C(C)(C)C#N | 1.1 | –
ClC=C1C2CC(C(Cl)C2Cl)C1(CCl)C(Cl)Cl (centres undefined) | 5.45 | –
COc1ccc(C=NNC(=N)N)cc1 | 0.29 | –
O=S(=O)(C(Cl)(Cl)Cl)C(Cl)(Cl)Cl | 3.3 | –
ClCC1(CCl)C2CC(Cl)(Cl)C1(C(Cl)Cl)CC2(Cl)Cl (centres undefined) | 5.79 | –
